Tested on: Mus musculus
[1] = developmental, duration: 5 days, oral, F, Developmental: Delay in vaginal opening at 5 mg/kg and mammary gland growth stimulation a 5 mg/kg and inhibition at 10 mg/kg
[2] = developmental, duration: 7 days, oral, F, Kunming, Developmental: Increased resorbed embryos at 10 mg/kg/day in GD 13 group
[3] = developmental, duration: 17 days, oral, F, C57BL/6, Developmental: Developmental delays in the mammary glands on PNDs 21 (38%) and 61 (25%)
[4] = developmental, duration: 17 days, oral, F, CD1, Developmental: Increased ambulatory activity and decreased methamphetamineinduced activity
[5] = developmental, duration: 17 days, oral, F, Developmental: Decrease in number of successful births
[6] = developmental, duration: 17 days, oral, F, Hepatic: Centrilobular hepatocyte hypertrophy and bile duct hyperplasia at 3 mg/kg/day
[7] = reproduction developmental, duration: 17 days, oral, F, CD1, Hepatic: Increase in severity of chronic inflammation at ?1 mg/kg/day / Ito cell hypertrophy and centrilobular hepatocellular hypertrophy …
[8] = short-term, duration: 4 days, dermal, F, BALB/c, Hepatic: 52% increase in absolute liver weight
[9] = short-term, duration: 4 days, dermal, F, BALB/c, Immunotoxicological: Increased serum IgE following ovalbumin challenge
[10] = short-term, duration: 5 days, oral, F, BALB/c, Body Weight: 13% decrease in body weight gain
[11] = short-term, duration: 5 days, oral, F, Body Weight: 10% decrease in body weight gain
[12] = short-term, duration: 10 days, oral, F, Immunotoxicological: Altered response to sRBC

O=C(O)C(F)(F)C(F)(F)C(F)(F)C(F)(F)C(F)(F)C(F)(F)C(F)(F)F [Perfluorooctanoic acid]
LOAEL (developmental, duration: 5 days, oral, F, BALB/c, Developmental: Delay in vaginal opening at 1 mg/kg and mammary gland growth inhibition at 5 and 10 mg/kg): 1 mg/kg-day
LOAEL [1]: 5 mg/kg-day
NOAEL [1]: 1 mg/kg-day
LOAEL (developmental, duration: 5 days, oral, F, Developmental: Mammary gland growth stimulation): 5 mg/kg-day
LOAEL [2]: 10 mg/kg-day
NOAEL [2]: 5 mg/kg-day
LOAEL (developmental, duration: 15 days, oral, F, C57BL/6, Developmental: Increased horizontal and ambulatory locomotor activity and decreased resting time in males / decrease in novel object …): 0.1 mg/kg-day
LOAEL [3]: 0.3 mg/kg-day
NOAEL [3]: 0.1 mg/kg-day
LOAEL (developmental, duration: 17 days, oral, F, CD1, Developmental: Developmental delays in mammary gland development): 0.01 mg/kg-day
LOAEL (developmental, duration: 17 days, oral, F, CD1, Developmental: Developmental delays in the mammary glands on PNDs 35 (26%) and 56 (30%)): 0.01 mg/kg-day
LOAEL (developmental, duration: 17 days, oral, F, CD1, Developmental: Impaired development of mammary glands in offspring): 0.3 mg/kg-day
LOAEL [4]: 1 mg/kg-day
NOAEL [4]: 0.3 mg/kg-day
LOAEL (developmental, duration: 17 days, oral, F, Developmental: 31.5% reduced pups per litter on PND 20): 3 mg/kg-day
LOAEL [5]: 3 mg/kg-day
NOAEL [5]: 0.1 mg/kg-day
NOAEL (developmental, duration: 17 days, oral, F, Hepatic: 28% increased liver weight, hepatocellular hypertrophy with increased peroxisomes): 3 mg/kg-day
LOAEL [6]: 3 mg/kg-day
NOAEL [6]: 1 mg/kg-day
LOAEL (developmental, duration: 18 days, oral, F, ICR, Developmental: 14% increased neonatal mortality, 9.5% reduced fetal body weight): 5 mg/kg-day
NOAEL (developmental, duration: 18 days, oral, F, ICR, Developmental: 14% increased neonatal mortality, 9.5% reduced fetal body weight + Hepatic: 35% increased maternal relative liver weight with…): 1 mg/kg-day
LOAEL (developmental, duration: 20 days, oral, diet, M/F, C57BL/6, developmental): 8.29 mg/L
LOAEL (developmental, duration: 21 days, oral, F, C57BL/6, Developmental: Altered femur and tibial bone morphology, decreased tibial mineral density): 0.3 mg/kg-day
LOAEL (developmental, duration: 21 days, oral, M/F, Developmental: Altered exploratory behavior in adult offspring (increased in males and decreased in females) / increased global activity in…): 0.3 mg/kg-day
LOAEL (reproduction developmental, duration: 7 days, oral, F, Kunming, Reproductive: Decreases in progesterone levels at ?5 mg/kg in GD 13 group / increased serum estradiol level at 10 mg/kg/day on GD 7 / …): 2.5 mg/kg-day
LOAEL [7]: 1 mg/kg-day
NOAEL [7]: 0.3 mg/kg-day
NOAEL (reproduction developmental, duration: 17 days, oral, F, Hepatic: Increased severity of centrilobular hepatocyte hypertrophy at ?0.3 mg/kg/day): 1 mg/kg-day
LOAEL (reproduction developmental, duration: 17 days, oral, M/F, CD1, Hepatic: Increased severity of hepatocellular hypertrophy at PND 91 and periportal inflammation on PND 21 at ?0.01 mg/kg/day (incidence was …): 0.01 mg/kg-day
LOAEL (reproduction developmental, duration: 18 days, oral, F, ICR, Hepatic: 35% increased maternal relative liver weight with hepatocellular hypertrophy at ?1 mg/kg/day / single cell necrosis and mild …): 10 mg/kg-day
LOAEL (short-term, duration: 3 weeks, oral, M, Hepatic: Hepatocellular hypertrophy and degeneration): 5 mg/kg-day
NOAEL (short-term, duration: 4 days, dermal, F, BALB/c): 50 mg/kg-day
LOAEL [8]: 6.25 mg/kg-day
NOAEL [8]: 2.5 mg/kg-day
LOAEL [9]: 18.8 mg/kg-day
NOAEL [9]: 12.5 mg/kg-day
LOAEL [10]: 10 mg/kg-day
NOAEL [10]: 5 mg/kg-day
NOAEL (short-term, duration: 5 days, oral, F, BALB/c, Hepatic: Increases in liver weight and hepatocellular hypertrophy at ?1 mg/kg): 10 mg/kg-day
LOAEL [11]: 10 mg/kg-day
NOAEL [11]: 5 mg/kg-day
LOAEL (short-term, duration: 5 days, oral, F, C57BL/6, Reproductive: Increased progesterone levels): 5 mg/kg-day
NOAEL (short-term, duration: 5 days, oral, F, Hepatic: Increases in liver weight and hepatocellular hypertrophy at ?1 mg/kg): 10 mg/kg-day
LOAEL (short-term, duration: 7 days, oral, F, BALB/c, Body Weight: 36% decrease in body weight gain + Immunotoxicological: Inhibition of T-and B-lymphocyte proliferation in response to sRBC / …): 20 mg/kg-day
NOAEL (short-term, duration: 7 days, oral, F, BALB/c, Hepatic: 32% increase in relative liver weight): 20 mg/kg-day
LOAEL (short-term, duration: 7 days, oral, M, Body Weight: 14% decreased mean body weight + Immunotoxicological: 40% reduction in spleen weight and 79% reduction in thymus weight): 33 mg/kg-day
LOAEL (short-term, duration: 7 days, oral, M, Body Weight: >10% reduced final body weight): 24 mg/kg-day
NOAEL (short-term, duration: 7 days, oral, M, Hepatic: 2-fold increase in absolute liver weight): 24 mg/kg-day
NOAEL (short-term, duration: 7 days, oral, M, Hepatic: 86% increase in absolute liver weight): 33 mg/kg-day
NOAEL (short-term, duration: 7 days, oral, M, Hepatic: Hepatocellular hypertrophy, steatosis, and increased hepatic triglyceride levels): 10 mg/kg-day
LOAEL (short-term, duration: 7 days, oral, M, Immunotoxicological: Decreased humoral response to immunization with horse red blood cells): 24 mg/kg-day
LOAEL [12]: 15 mg/kg-day
NOAEL [12]: 7.5 mg/kg-day
LOAEL (short-term, duration: 10 days, oral, M, Body Weight: 17% decrease in final body weight): 30 mg/kg-day
LOAEL (short-term, duration: 10 days, oral, M, Body Weight: 25% body weight loss after 5 days of treatment): 78 mg/kg-day
LOAEL (short-term, duration: 10 days, oral, M, Body Weight: 25% body weight loss after 10 days of treatment): 78 mg/kg-day
NOAEL (short-term, duration: 10 days, oral, M, C57BL/6, Hepatic: 68% increase in liver weight, hepatocellular hypertrophy, and decreased serum cholesterol levels): 2 mg/kg-day
NOAEL (short-term, duration: 10 days, oral, M, Hepatic: 35% increase in absolute liver weight at ?1 mg/kg/day): 1 mg/kg-day
NOAEL (short-term, duration: 10 days, oral, M, Hepatic: 74% increase in absolute liver weight at ?78 mg/kg/day): 390 mg/kg-day
NOAEL (short-term, duration: 10 days, oral, M, Hepatic: 74% increase in absolute liver weight in 5 days at ?78 mg/kg/day): 390 mg/kg-day
NOAEL (short-term, duration: 10 days, oral, M, Hepatic: >90% increase in absolute and relative liver weight): 30 mg/kg-day
LOAEL (short-term, duration: 10 days, oral, M, Immunotoxicological: 40-50% decrease in spleen and thymus weights): 11.5 mg/kg-day
LOAEL (short-term, duration: 10 days, oral, M, Immunotoxicological: 86% reduction in absolute thymus weight / 30% reduction in absolute spleen weight): 30 mg/kg-day
NOAEL (short-term, duration: 15 days, oral, F): 7.5 mg/kg-day
LOAEL (short-term, duration: 15 days, oral, F, Body Weight: 14-20% decrease in body weight in wild-type mice): 30 mg/kg-day
LOAEL (short-term, duration: 21 days, oral, M, ICR, Immunotoxicological: Marked hyperplasia in spleen white pulp and thymic atrophy): 47.2 mg/kg-day
NOAEL (subchronic, duration: 6 weeks, oral, M/F, BALB/c, Hepatic: 54-65% increase in relative liver weight / 20% increase in plasma cholesterol in males): 0.55 mg/kg-day
NOAEL (subchronic, duration: 6 weeks, oral, M/F, C57BL/6, Hepatic: 66-67% increase in relative liver weight in males / increased plasma cholesterol levels in males (35%) and females (70%)): 0.55 mg/kg-day

Source: EPA's ToxValDB 9.5
